Test results taken from patent publication US20040077881A1, “$G(d)1-pyrrolines used in pest control” (priority 2001, published 2004).

Legend:
[1] = system: Amblyomma variegatum or A. hebraeum, nymphs which have sucked themselves full; test: Nymph ecdysis test on polyphagous ticks; type: in vivo; settings: 100 ppm; nymphs immersed for 1 minute; assessed after 4 to 6 weeks
Protocol: [table] 20 mg of active compound are dissolved in 1 ml of dimethyl sulphoxide, more dilute concentrations are prepared by dilution with dist. H2O. 10 nymphs which have sucked themselves full are immersed for 1 minute into the preparation of active compound to be tested. The animals are transferred to petri dishes (Ø0 9.5 cm) fitted with filter discs and covered. After the nymphs have remained in a controlled-environment cabinet for 4 to 6 weeks, the effect on ecdysis is determined. 100% means that none of the animals have undergone normal ecdysis. 0% means that all animals have undergone ecdysis.

[2] = system: caterpillars of the army-worm (Spodoptera frugiperda); test: Spodoptera frugiperda test; type: in vivo; settings: 1000 ppm, cabbage leaves dipped
Protocol: (§1) [table] To produce a suitable preparation of active compound, 1 part by weight of active compound is mixed with the stated amounts of solvent and emulsifier, and the concentrate is diluted with emulsifier-containing water to the desired concentration. Cabbage leaves (Brassica oleracea) are treated by being dipped into the preparation of active compound of the desired concentration and are populated with caterpillars of the army-worm (Spodoptera frugiperda) whilst the leaves are still moist. After the desired period of time, the kill in % is determined. 100% means that all caterpillars have been killed; 0% means that none of the caterpillars have been killed.

Lucilia cuprina larvae = test: Blowfly larvae test / development-inhibitory action; type: in vivo; settings: 100 ppm
Protocol: [table] 20 mg of active compound are dissolved in 1 ml of dimethyl sulphoxide, more dilute concentrations are prepared by dilution with dist. H2O. About 20 Lucilia cuprina larvae are introduced into a test tube which contains about 1 cm^3 of horsemeat and 0.5 ml of the preparation of active compound to be tested. The activity of the preparation of active compound is determined after 24 and 48 hours. The test tubes are transferred into a beaker whose bottom is covered with sand. After a further 2 days, the test tubes are removed and the pupae are counted. The activity of the preparation of active compound is assessed using the number of flies that have hatched after 1.5 times the development period of an untreated control. 100% means that none of the flies have hatched; 0% means that all of the flies have hatched normally.

[3] = system: Heliothis virescens caterpillars; test: Heliothis virescens test; type: in vivo; settings: 1000 ppm, soyabean shoots dipped
Protocol: Solvent: 30 parts by weight of dimethylformamide Emulsifier: 1 part by weight of alkylaryl polyglycol ether To produce a suitable preparation of active compound, 1 part by weight of active compound is mixed with the stated amounts of solvent and emulsifier, and the concentrate is diluted with emulsifier-containing water to the desired concentration. Soyabean shoots (Glycine max) are treated by being dipped into the preparation of active compound of the desired concentration and populated with Heliothis virescens caterpillars whilst the leaves are still moist. After the desired period of time, the kill in % is determined. 100% means that all caterpillars have been killed; 0% means that none of the caterpillars have been killed.

[4] = logP determination by HPLC (EEC directive 79/831 Annex V.A8, reversed-phase C 18); type: physicochemical; settings: reversed-phase HPLC column (C 18), pH 2.3, HPLC, reversed-phase column (C 18), 43° C., pH 2.3, 0.1% aqueous phosphoric acid/acetonitrile; read-out: log P
Protocol: The stated logP values were determined in accordance with EEC directive 79/831 Annex V.A8 by HPLC (High Performance Liquid Chromatography) using a reversed-phase column (C 18). Temperature: 43° C. In the acidic range, the determination was carried out at pH 2.3 using the mobile phases 0.1% aqueous phosphoric acid and acetonitrile; linear gradient from 10% acetonitrile to 90% acetonitrile.

[5] = system: caterpillars of the army-worm (Spodoptera exigua); test: Spodoptera exigua test; type: in vivo; settings: 1000 ppm, cabbage leaves dipped
Protocol: as §1, with “exigua)” for “frugiperda)”

[6] = system: caterpillars of the diamond-back moth (Plutella xylostella); test: Plutella test; type: in vivo; settings: 1000 ppm, cabbage leaves dipped
Protocol: as §1, with “diamond-back moth (Plutella xylostella)” for “army-worm (Spodoptera frugiperda)”

[7] = system: fruit tree spider mite (Panonychus ulmi); test: Panonychus test; type: in vivo; settings: 200 ppm, plum trees sprayed
Protocol: To produce a suitable preparation of active compound, 1 part by weight of active compound is mixed with the stated amounts of solvent and emulsifier, and the concentrate is diluted with emulsifier-containing water to the desired concentration.
Plum trees (Prunus domestica) of a height of about 30 cm which are heavily infested by all stages of the fruit tree spider mite (Panonychus ulmi) are sprayed with a preparation of active compound of the desired concentration.
After the desired period of time, the effect in % is determined. 100% means that all spider mites have been killed; 0% means that none of the spider mites have been killed.

Fc1cccc(F)c1C1=NC(c2ccc(-c3ccc(OC(F)(F)F)cc3)cc2)CC1(Cl)Cl (centres unmarked) [drawing 87]
Effect on ecdysis in % [1]: 100%

Fc1cccc(F)c1C1=NC(c2ccc(-c3ccc(OC(F)(F)F)cc3)cc2)CC1(Cl)Cl (centres unmarked) [drawing 69]
Kill rate in % after 7 d [2]: 100%

Fc1cccc(F)c1C1=N[C@@H](c2ccc(-c3ccc(OC(F)(F)F)cc3)cc2)CC1(Cl)Cl [drawing 85]
Kill rate in % after 48 h (Lucilia cuprina larvae): 100%

Fc1cccc(F)c1C1=N[C@@H](c2ccc(-c3ccc(OC(F)(F)F)cc3)cc2)CC1(Cl)Cl [drawing 88]
Effect on ecdysis in % [1]: 100%

Fc1cccc(F)c1C1=N[C@@H](c2ccc(-c3ccc(OC(F)(F)F)cc3)cc2)CC1(Cl)Cl [drawing 54]
Kill rate in % after 6 d [3]: 100%

Fc1cccc(F)c1C1=N[C@@H](c2ccc(-c3ccc(OC(F)(F)F)cc3)cc2)C/C1=C\c1ccc(Br)cc1 [drawing 73]
Kill rate in % after 7 d [2]: 100%

Fc1cccc(F)c1C1=NC(c2ccc(-c3ccc(OC(F)(F)F)cc3)cc2)CC1(Cl)Cl (centres unmarked) [Example 4, 4,4-dichloro-5-(2,6-difluorophenyl)-2-[4′-(trifluoromethoxy)-1,1′-biphenyl-4-yl]-3,4-dihydro-2H-pyrrole]
melting point: 60 to 61 °C | chromatographic logP [4]: 5.92

O=S(=O)(Oc1ccc(-c2ccc([C@H]3C[C@H](Cl)C(c4c(F)cccc4F)=N3)cc2)cc1)C(F)(F)F [drawing 89]
Effect on ecdysis in % [1]: 100%

O=S(=O)(Oc1ccc(-c2ccc([C@H]3C[C@H](Cl)C(c4c(F)cccc4F)=N3)cc2)cc1)C(F)(F)F [drawing 75]
Kill rate in % after 7 d [2]: 100%

Fc1cccc(F)c1C1=NC(c2ccc(-c3ccc(OC(F)(F)F)cc3)cc2)CC1Cl (centres unmarked) [drawing 67]
Kill rate in % after 6 d [5]: 100%

Fc1cccc(F)c1C1=NC(c2ccc(-c3ccc(OC(F)(F)F)cc3)cc2)CC1Cl (centres unmarked) [drawing 65]
Kill rate in % after 6 d [6]: 100%

O=S(=O)(Oc1ccc([C@H]2CC(Br)C(c3c(F)cccc3F)=N2)cc1)C(F)(F)F (some centres unmarked) [drawing 74]
Kill rate in % after 7 d [2]: 100%

Fc1cccc(F)c1C1=N[C@@H](c2ccc(-c3ccc(OC(F)(F)F)cc3)cc2)CC1(Cl)Cl [drawing 68]
Kill rate in % after 6 d [5]: 100%

O=S(=O)(Oc1ccc(-c2ccc([C@H]3C[C@H](Cl)C(c4c(F)cccc4F)=N3)cc2)cc1)C(F)(F)F [drawing 55]
Kill rate in % after 14 d [7]: 100%

Fc1cccc(F)c1C1=N[C@@H](c2ccc(-c3ccc(OC(F)(F)F)cc3)cc2)CC1(Cl)Cl [drawing 71]
Kill rate in % after 7 d [2]: 100%

Fc1cccc(F)c1C1=NC(c2ccc(-c3ccc(OC(F)(F)F)cc3)cc2)CC1Cl (centres unmarked) [drawing 70]
Kill rate in % after 7 d [2]: 100%

Fc1cccc(F)c1C1=NC(c2ccc(-c3ccc(OC(F)(F)F)cc3)cc2)CC1Cl (centres unmarked) [drawing 53]
Kill rate in % after 6 d [3]: 100%

Fc1cccc(F)c1C1=N[C@@H](c2ccc(-c3ccc(OC(F)(F)F)cc3)cc2)CC1(Br)Br [drawing 72]
Kill rate in % after 7 d [2]: 100%

Fc1cccc(F)c1C1=NC(c2ccc(-c3ccc(OC(F)(F)F)cc3)cc2)CC1(Cl)Cl (centres unmarked) [drawing 52]
Kill rate in % after 6 d [3]: 100%

O=S(=O)(Oc1ccc(-c2ccc([C@H]3C[C@H](Cl)C(c4c(F)cccc4F)=N3)cc2)cc1)C(F)(F)F [drawing 86]
Kill rate in % after 48 h (Lucilia cuprina larvae): 100%

Fc1cccc(F)c1C1=NC(c2ccc(-c3ccc(OC(F)(F)F)cc3)cc2)CC1(Cl)Cl (centres unmarked) [drawing 66]
Kill rate in % after 6 d [5]: 100%

Fc1cccc(F)c1C1=NC(c2ccc(-c3ccc(OC(F)(F)F)cc3)cc2)CC1(Cl)Cl (centres unmarked) [drawing 84]
Kill rate in % after 48 h (Lucilia cuprina larvae): 100%
